Laboratory results taken from patent publication US8518883B2, “Method of reducing deleterious effects of ischemia by administration of a thrombopoietin receptor ligand” (MCW Research Foundation, Inc., priority 2006, dated 2013).
Entries after “also recorded” stand apart in the source; their conditions may differ.

What was measured:
in vitro rat hearts = assay: TUNEL assay of apoptosis in isolated rat hearts after global ischemia/reperfusion
Protocol: Hearts from Sprague Dawley rats perfused continuously with bicarbonate buffer for 245 minutes served as non-ischemic controls (FIG. 5). Hearts aerobically perfused for 35 minutes and subjected to 25 minutes of global ischemia followed by 3 hours reperfusion served as the ischemia-reperfusion control group. Hearts aerobically perfused with buffer for 20 minutes and then perfused with Tpo (1 ng/ml) for 15 minutes before ischemia and reperfusion served as a Tpo-treated group. Each heart at the end of perfusion was snap frozen in liquid nitrogen. Four frozen sections (10 micron thick) from each heart (72 sections total) were processed for TUNEL assay according to the manufacturers protocol (Roche). The slides were examined under fluorescent microscope (400× magnification, excitation 490 nm, and emission 515 nm). Twenty-two random high-power fields from each heart sample were chosen and blindly quantified. TUNEL results are presented as % (positive nuclei per field/total nuclei per field×100%).

Sprague Dawley rats [1] = assay: Coronary artery ligation model, regional myocardial ischemia in vivo, Tpo given 15 min prior to ischemia; design: species or system rat
Protocol: (§1) Animals used in this study were adult male Sprague Dawley rats (200-350 g, generally 300 g). Animals were housed under standard conditions and allowed to feed ad lib. The Animal Care and Use Committee of the Medical College of Wisconsin approved all procedures performed in accordance with the regulations adopted by the National Institutes of Health.
Rats were anesthetized with sodium pentobarbital (50 mg/kg i.p.). Heparin was administered (150 U/kg i.p.) to prevent the formation of a thrombus in the coronary vasculature. A myocardial infarction was produced via the ligation of the left main artery using 6-0 prolene suture (See, e.g., Clements-Jewery, et al., Br. J. Pharmacol. 135:807-815, 2002; Farkas, et al., J. Cardiovasc. Pharmacol. 39:412-424, 2002). The left main coronary artery was identified and ligated with a 5-0 Prolene suture threaded through a polyethylene tube to act as an occluder. A control group included sham operated hearts in which only a suture was passed around the left main coronary artery was performed.
Animals were treated with Tpo (0.005-0.5 micrograms/kg) administered intravenously for 15 minutes prior to the onset of ischemia. Regional ischemia and reperfusion were induced by tightening the occluder and by releasing it. Hearts were then subjected to 30 minutes regional ischemia followed by 3 hours reperfusion. Recovery of left ventricular developed pressure and infarct size/area at risk at 3 hours reperfusion were used to assess resistance to myocardial ischemia. For characterization of infarction size, hearts were perfused with 10 ml bicarbonate buffer containing triphenyltetrazolium chloride (SIGMA) at 37° C.
The heart was sectioned in 2 mm segments from apex to atrio-ventricular groove in a transverse fashion. Each segment was recorded and placed in formalin. After twenty-four (24) hours, the specimen was digitally photographed in a camera mount to normalize specimen-to-lens distance. Each photograph was then appended to Adobe Photoshop (Adobe™) to measure pixel density of infarcted versus non-infarcted areas. The percentage of infarction of each slide was expressed as a percentage of the entire area of the heart.
There was no significant difference in body weight, heart weight or risk zone size between groups. […] Significant differences were found for mean arterial pressure and rate pressure for some groups when compared to sham. For each group, the area at risk compared to total left ventricle weight was calculated. There were no significant differences seen between groups (data not shown).

Sprague Dawley rats [2] = assay: Coronary artery ligation model, Tpo given after the onset of ischemia; format: in vivo, rat; conditions: Tpo 0.05 μg/kg 15 min prior to reperfusion (15 min after onset of 30 min regional ischemia)
Protocol: FIG. 9 is a graphic depiction of the effect of Tpo (0.05 μg/kg) on myocardial infarct size in vivo (as percentage % of area at risk) when administered intravenously 15 minutes after the onset of 30 minutes regional myocardial ischemia in vivo induced by suture ligation of the left main coronary artery and 3 hours reperfusion. *=P<0.05, with Tpo vs. without Tpo (control).
as §1
(§2) A myocardial infarction was produced via the ligation of the left main artery using 6-0 prolene suture (See, e.g., Clements-Jewery, et al., supra, 2002; Farkas, et al., supra, 2002). Rats were anesthetized with sodium pentobarbital (50 mg/kg i.p.). The left main coronary artery was identified and ligated with a 5-0 Prolene suture threaded through a polyethylene tube to act as an occluder. […]
(§3) The heart was sectioned in 2 mm segments from apex to atrio-ventricular groove in a transverse fashion. Each segment was recorded and placed in formalin. […] The percentage of infarction of each slide was expressed as a percentage of the entire area of the heart.

Sprague Dawley rats [3] = assay: Coronary artery ligation model, Tpo given after the onset of reperfusion; format: in vivo, rat; conditions: Tpo 0.05 μg/kg i.v. 10 seconds following reperfusion after 30 min regional ischemia
Protocol: FIG. 10 is a graphic depiction of the effect of Tpo (0.05 μg/kg) on myocardial infarct size in vivo (as percentage % of area at risk) when administered intravenously 10 seconds after the onset of 3 hours reperfusion following 30 minutes regional myocardial ischemia in vivo induced by suture ligation of the left main coronary artery. *=P<0.05, with Tpo vs. without Tpo (control).
as §1, §2, §3

rats = assay: Platelet count and hematocrit after single Tpo treatment; format: in vivo, rat
Protocol: Prior to treatment, platelet counts in untreated rats were 850±96 10^3/ul, and the hematocrit in untreated rats was 43.8±1.8%.
FIG. 13A/B is a plot of additional data (mean±standard deviation, n+6 per group) that evaluated a single dose of Tpo (1.0 μg/kg i.v.) on platelet count and hematocrit. There was no effect.

[4] = tested on: healthy individuals and those about to receive chemotherapy; conditions: human trials, Tpo doses of 1-5 μg/kg; cited from earlier work
[5] = 15 min ISCHEMIA, Tpo 0.005 μg/kg i.v.
[6] = 15 min ISCHEMIA, Tpo 0.05 μg/kg i.v.
[7] = 15 min ISCHEMIA, Tpo 0.5 μg/kg i.v.
[8] = 3 hr REPERFUSION, Tpo 0.005 μg/kg i.v.
[9] = 3 hr REPERFUSION, Tpo 0.05 μg/kg i.v.
[10] = 3 hr REPERFUSION, Tpo 0.5 μg/kg i.v.
[11] = single Tpo 0.05 μg/kg i.v., 14 day follow up
[12] = single Tpo 1.0 μg/kg i.v., 28 day follow up

With Thrombopoietin [Tpo] the TUNEL-positive cells (in vitro rat hearts; Tpo 1.0 ng/ml 15 min before 25 min global ischemia, 3 hours reperfusion, ischemia control 3.56±0.75%, non-ischemic 1.91±0.54%) was 1.94±0.55%, the “Apoptosis following ischemia and reperfusion” value (in vitro rat hearts; Tpo 1.0 ng/ml prior to ischemia) was “reduced” and the Heart rate (Sprague Dawley rats [1]; [5]) was 374 ± 12 beats/min. For the same substance, the Mean arterial pressure (Sprague Dawley rats [1]; [5]) was 104 ± 11 mmHg, the Heart rate (Sprague Dawley rats [1]; [6]) was 352 ± 11 beats/min and the Mean arterial pressure (Sprague Dawley rats [1]; [6]) was 124 ± 11 mmHg. It also gave a Heart rate (Sprague Dawley rats [1]; [7]) of 382 ± 13 beats/min, a Mean arterial pressure (Sprague Dawley rats [1]; [7]) of 121 ± 13 mmHg and a Heart rate (Sprague Dawley rats [1]; [8]) of 359 ± 13 beats/min. It also gave a Mean arterial pressure (Sprague Dawley rats [1]; [8]) of 92 ± 7 mmHg, a Heart rate (Sprague Dawley rats [1]; [9]) of 332 ± 11 beats/min and a Mean arterial pressure (Sprague Dawley rats [1]; [9]) of 105 ± 11 mmHg. For the same substance, the Heart rate (Sprague Dawley rats [1]; [10]) was 364 ± 13 beats/min, the Mean arterial pressure (Sprague Dawley rats [1]; [10]) was 108 ± 16 mmHg and the Heart rate (Sprague Dawley rats [1]; BASELINE, Tpo 0.005 μg/kg i.v.) was 386 ± 17 beats/min. The Mean arterial pressure (Sprague Dawley rats [1]; BASELINE, Tpo 0.005 μg/kg i.v.) was 133 ± 13 mmHg, the Heart rate (Sprague Dawley rats [1]; BASELINE, Tpo 0.05 μg/kg i.v.) was 342 ± 16 beats/min and the Mean arterial pressure (Sprague Dawley rats [1]; BASELINE, Tpo 0.05 μg/kg i.v.) was 138 ± 6 mmHg. For the same substance, the Heart rate (Sprague Dawley rats [1]; BASELINE, Tpo 0.5 μg/kg i.v.) was 371 ± 11 beats/min, the Mean arterial pressure (Sprague Dawley rats [1]; BASELINE, Tpo 0.5 μg/kg i.v.) was 144 ± 6 mmHg and the “Optimal concentration of Tpo that afforded maximum reduction of infarct size” value (Sprague Dawley rats [1]; Tpo 0.005-0.5 μg/kg i.v. 15 min prior to ischemia) was 0.05 µg/kg. For the same substance, the “Post ischemic myocardial infarct size” value (Sprague Dawley rats [1]; Tpo i.v. 15 min prior to 30 min regional ischemia, 3 hours reperfusion, 'U' shaped dose dependence) was “decreased”, the Myocardial infarct size (Sprague Dawley rats [2]) was “decrease” and the Myocardial infarct size (Sprague Dawley rats [3]) was “decrease”. For the same substance, the Hematocrit (rats; [11]) was “remained unchanged; also recorded: did not result in an increased”, the Platelet count (rats; [11]) was “remained unchanged; also recorded: did not result in an increased” and the Hematocrit (rats; [12]) was “no effect”. The Platelet count (rats; [12]) was “no effect” and the “Increase of platelet production” value [4] was 5-10 times.
